Data from patent US11123304B2, “Nanoparticles having poly(ester amide) polymer cores as drug delivery vehicles” (The Brigham and Women's Hospital, Inc., priority 2017, dated 2021).

How the values were obtained:
blood glucose levels [1] = assay: Hypoglycemic effect of oral insulin-loaded NPs in diabetic mice; assay type: in vivo, BALB/c mice; settings: subcutaneous injection
Method: For the evaluation of in vivo efficacy in diabetic animals, insulin-dependent (type 1) diabetes was induced in male BALB/c mice (Charles River Laboratories) by a single injection of streptozotocin solution ([…]) as previously described (see, e.g., 7. S. Arora, S. K. Ojha, D. Vohora, Global J. Pharmacol. 2009, 3, 81-84). Animals were considered to be diabetic if they had fasting glycemia higher than 16.0 mM one week after the injection. The diabetic mice (n=6 per group) were fasted overnight and then administered different samples by gavage, including saline, free insulin, Tf-coated NPs (PEA75), and BSA-coated NPs (PEA75) (insulin dose of 50 U/kg, 1.5 mL per 100 g of body weight). One group of animals was administered an insulin solution (5 U/kg) by subcutaneous (SC) injection. The blood glucose levels were measured as described above, and the pharmacological availability for different formulations was calculated relative to the SC route.

blood glucose levels [2] = assay: Hypoglycemic effect of oral insulin-loaded NPs in normal rats; assay type: in vivo, Sprague Dawley rats; settings: subcutaneous injection
Method: Sprague Dawley rats (n=6 per group) were fasted overnight before experiments, but allowed free access to water. The animals were administered Tf-coated NPs and BSA-coated NPs (PEA75) in PBS (1.5 mL per 100 g of body weight), at an insulin dose of 50 U/kg, by oral gavage. Tf-coated NPs were tested with four different formulations, including PEA50 NPs, PEA75 NPs, PLGA-PEA50 NPs, and PLGA-PEA75 NPs. As controls, saline and free insulin (50 U/kg) were administered by oral gavage. One group of animals was administered with insulin solution (2 U/kg) by subcutaneous (SC) injection, which was used for the calculation of relative pharmacological availability (PA %). The blood glucose levels were measured as described above, and the pharmacological availability for different formulations was calculated relative to the SC route. […] All four tested Tf-coated NPs elicited a significant hypoglycemic response, reducing glucose during the first 1-6 hours after administration as shown in Table 3.

blood glucose levels [3] = assay: Bioactivity of insulin released from NPs, subcutaneous injection; assay type: in vivo, Sprague Dawley rats; settings: 2 U/kg subcutaneous, insulin released in PBS 2 hours at 37° C.
Method: To study the bioactivity of insulin after the preparation and drug release process, NPs were allowed to release insulin in PBS for 2 hours at 37° C. Then the NPs were isolated from the released insulin by ultra-centrifugation. Sprague Dawley rats (Dashuo Laboratory Animal Center) (n=4 per group) were fasted overnight, and then administered the released insulin (2 U/kg) or original free insulin (2 U/kg) and saline, by subcutaneous injection. Blood glucose levels were measured with the AlphaTRAK blood glucose monitoring system (Abbott).

Substance	AAC (area above the serum glucose concentration curve) (blood glucose levels [1]; 5 U/kg)	Tmax (blood glucose levels [1]; 5 U/kg)	PA (relative pharmacological availability) (blood glucose levels [1]; 5 U/kg (reference route))	AAC (area above the serum glucose concentration curve) (blood glucose levels [2]; 2 U/kg)	Tmax (blood glucose levels [2]; 2 U/kg)	PA (relative pharmacological availability) (blood glucose levels [2]; 2 U/kg (reference route))	Hypoglycemic response of released insulin (blood glucose levels [3])
insulin [Free Insulin]	227.5 %*h	60 min	100.0%	92.8 %*h	30 min	100.0%	–
released insulin: insulin released from the NPs in PBS for 2 hours at 37° C. and separated by ultra-centrifugation	–	–	–	–	–	–	hypoglycemic response analogous to an equivalent dose of free insulin solution
